# Activity calls are given as the source filed them. The rule behind the calls is not given here.
# Tested on: Radical scavenging activity
# Test: Antioxidant activity assessed as DPPH radical scavenging activity at 20 uM after 2 min by spectrophotometric analysis
# Format: functional
row,Structure (SMILES),Activity
1,O=C(/C=C/c1ccc(O)c(O)c1)OC[C@H]1O[C@@H](Oc2cc(O)c3c(c2)O[C@H](c2ccc(O)cc2)CC3=O)[C@H](O)[C@@H](O)[C@@H]1O,inactive
2,O=C(/C=C/c1ccc(O)c(O)c1)OC[C@H]1O[C@@H](Oc2cc(O)c3c(=O)c(-c4ccc(O)cc4)coc3c2)[C@H](O)[C@@H](O)[C@@H]1O,inactive

# From ChEMBL document CHEMBL3046107, “A new isoflavone from Blepharis ciliaris of an Egyptian origin” (Med Chem Res, 2013)
